Source: paper PMC5575254, “An allosteric ligand-binding site in the extracellular cap of K2P channels” (Nature Communications, 2017)

Columns and labels:
[1] = test system: mice; test: Forced swimming test; assay type: in vivo, Male C57BL/6 mice; conditions: chronic i.p. administration 10 days; TKDC 0.5, 1, 5 mg kg-1; fluoxetine 10 mg kg-1; vs vehicle
Description: Male C57BL/6 mice, aged 8 weeks (weighing 18–20 g) were used for acute and chronic drug administration and behavioral tests. The mice were housed four per cage under a 12-h light–dark cycle. Mice were raised under stable conditions with food and water ad libitum. All animal studies and experimental procedures were approved by the Animal Care Committees of the Shanghai Institute of Materia Medica, Chinese Academy of Sciences, and experiments were carried out in accordance with EU Directive 2010/63/EU on the protection of animals used for scientific purposes. […] The mice were removed to a sound-attenuating testing room 3–4 h before testing. The behavioral tests were carried out 30 min and 24 h after acute and chronic drugs administration, respectively.
The mice were performed under normal light. The apparatus was a transparent Plexiglas cylinder with 30 cm height × 10 cm diameter and the water temperature at 23–25 °C were set to prevent mice from touching the bottom with their limbs. Mice were allowed to swim for 8 min, and their activity was videotaped. There was an extra 15-min swimming in the previous day. The duration of immobility defined as floating or remaining motionless was assessed. To avoid extremely active at the beginning of swimming, the first 2 min of swimming was also excluded as the tail suspension test. […]

[2] = Solubility of TKDC (remark); assay type: physicochemical
[3] = target: T1, TRAAK (Homo sapiens, UniProt Q9NYG8); test: Whole-cell voltage clamp of CHO cells expressing TRAAK; assay type: cell-based; conditions: whole-cell
T1 construct: expressed in transfected cells; host or cells: CHO cells, transient transfection
T1 sequence (Q9NYG8 1-393): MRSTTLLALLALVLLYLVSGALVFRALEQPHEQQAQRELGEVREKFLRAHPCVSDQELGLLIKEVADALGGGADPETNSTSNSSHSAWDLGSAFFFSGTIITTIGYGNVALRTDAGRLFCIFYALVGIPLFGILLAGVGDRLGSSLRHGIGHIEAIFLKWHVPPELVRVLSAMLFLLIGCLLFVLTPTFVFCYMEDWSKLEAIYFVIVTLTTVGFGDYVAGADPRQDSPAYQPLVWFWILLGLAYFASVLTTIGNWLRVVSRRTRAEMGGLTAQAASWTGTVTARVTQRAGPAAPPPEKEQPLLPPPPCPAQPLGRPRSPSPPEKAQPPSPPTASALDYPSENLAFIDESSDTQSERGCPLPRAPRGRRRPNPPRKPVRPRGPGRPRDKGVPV
From the text: cDNA of the human TREK-1, TREK-2 and TRAAK channels were subcloned into the pEGFPN1 expression vector (Invitrogen), respectively. Mutations were introduced into TREK-1 or TRAAK by PCR using the QuickChange XL sitedirected mutagenesis kit (Agilent Technologies) and were subsequently confirmed by DNA sequencing.
Chinese hamster ovary (CHO) cells were provided by the Cell Bank of Chinese Academy of Sciences (Shanghai, China). CHO cells were maintained in DMEM/F12 (Gibco) supplemented with 10% fetal bovine serum (Gibco) and 100 μg ml^−1 penicillin-streptomycin (Cellgro) in a humidified incubator at 37 °C (5% CO2). For electrophysiology experiments, cells plated in 35 mm tissue culture dishes (Corning Incorporated) were transiently transfected with the plasmids using PolyJet™ reagent (SignaGen) according to the manufacturer’s instructions. Primers used in this study are listed in Supplementary Table 4.
All electrophysiological recordings were obtained using patch-clamp recordings in two different configurations: (1) whole cell for macroscopic current dose–response curves; and (2) outside-out and inside-out for macroscopic currents recordings.
All patch-clamp recordings were conducted 36–96 h after transfection with an Axopatch-200B amplifier (Molecular Devices) at room temperature (23–25 °C). The microelectrodes fashioned from 1.5 mm thin-walled borosilicate glass with filament were pulled from Flaming/Brown type micropipette puller (P-97; SUTTER INSTRUMENT) with the resistances of 3–7 MΩ (whole cell) or 7–15 MΩ (outside-out) when filled with a solution containing (in mM): 140 KCl, 2 MgCl2, 10 EGTA, 1 CaCl2, 10 HEPES (pH 7.3, adjusted with KOH). External solution contained (in mM): 150 NaCl, 5 KCl, 0.5 CaCl2, 1.2 MgCl2, 10 HEPES (pH 7.3, adjusted with NaOH). The current signals were filtered at 1 kHz and digitized at a 10 kHz sampling frequency by using DigiData 1440 A.
Data of whole-cell voltage clamp experiments were fitted using doseResp function. The half inhibition concentrations were derived from fits of the dose–response curves to the function:1 I/I0=A1+A2-A1/1+10^logx0-xP, where I 0 and I are current amplitudes before and after application of inhibitors; A 1 and A 2 are constants between 0 and 1; x is the concentration of inhibitor; x o is the concentration when 50% inhibition was reached (IC50), P is the Hill constant.

solubility [2]: not very soluble
decrease in the current ([3]; TRAAK, 300 μM TKDC perfused): ~ 75%
IC50 ([3]; CHO cells, WT TRAAK, mean ± s.e.m): 65.9 ± 7 µM
SMILES: CS(=O)(=O)N(CC(=O)N1CCc2ccccc2C1)c1ccc(Cl)cc1 [TKDC, N-(4-cholorphenyl)-N-(2-(3,4-dihydrosioquinolin-2(1H)-yl)-2-oxoethyl)methanesulfonamide]
immobility in the forced swimming test [1]: decrease in immobility
